Test results taken from patent publication US8399416B2, “Method of using heparin binding motif for treating asthma” (National Tsing Hua University, priority 2008, dated 2013).
Substitutions are numbered along the chain they refer to. Read-outs that look alike come from different tables or passages of the source. No end group written: not given here.

Assays:
ECP wt = molecular target: T1, ECP wt (Homo sapiens, UniProt P12724); test: Intrinsic tryptophan fluorescence titration of ECP wt with heparin oligosaccharides; type: binding
T1 construct: His6 (C); made in house; host or cells: E. coli BL21-CodonPlus (DE3)
T1 sequence (P12724 28-160): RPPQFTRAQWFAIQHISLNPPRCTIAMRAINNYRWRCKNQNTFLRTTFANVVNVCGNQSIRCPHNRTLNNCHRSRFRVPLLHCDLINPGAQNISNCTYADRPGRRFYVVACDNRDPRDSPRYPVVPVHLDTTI
Description: (§1) FIG. 5. ITFE profiles of ECP wt and mt1 with dp5. Tryptophan titration emission spectra of […] ECP wt or mt1 bound with dp5. The emission spectra at 340 nm were recorded. The resulting isotherms were fitted by nonlinear regression least-squares computer fit using the KaleidaGraph Synergy Software. ΔF, the relative fluorescence change, equals F0−Fobs, where F0 and Fobs represent the initial and observed fluorescence values, respectively.
(§2) The binding affinities of wild-type and mutant ECP for heparin oligosaccharides were subsequently monitored by intrinsic tryptophan fluorescence titration (Lau, E. K., et al. (2004) The Journal of biological chemistry 279, 22294-22305).
(§3) Binding of ECP to heparin was monitored by changes in intrinsic tryptophan fluorescence emission (IFTE). ECP (200 nM) in PBS at 25° C. was titrated with small aliquots of a high concentration of pentasaccharides with minimal dilution (<2%). Protein fluorescence measurements were recorded 2 min after each addition on a Hitachi 8000 spectrofluorimeter at emission wavelength of 340 nm using an excitation wavelength of 280 nm. ΔF, the relative fluorescence change, equals F0−Fobs, where F0 and Fobs represent the initial and observed fluorescence values, respectively. […]

ECP mt1 = molecular target: T2, ECP mt1 (Homo sapiens, UniProt P12724, K65A/R61A/R63A/W62A); test: Intrinsic tryptophan fluorescence titration of ECP mt1 with heparin oligosaccharides; type: binding
T2 construct: recombinant mature ECP was injected into the rat circulation; His6 (C); made in house; host or cells: E. coli BL21-CodonPlus(DE3)
T2 sequence (P12724 28-160 R61A/W62A/R63A/K65A): T1 sequence (P12724 28-160) with R34A, W35A, R36A, K38A
Description: as §1
Amino acid residues R34, W35, R36, and K38 of ECP were simultaneously substituted to alanine using QuickChange site-directed mutagenesis (Stratagene, La Jolla, Calif.) and the resultant mutant was named ECP mt1. […]
as §2
as §3, with “ECP (200 nM) in PBS at 25° C. was titrated with small aliquots of a high concentration of pentasaccharides with minimal dilution (<2%).” left out

C1 peptide = C1 peptide (Homo sapiens, UniProt P12724); test: Tryptophan fluorescence titration of C1 peptide with heparin oligosaccharides; type: binding
Description: FIG. 10. Titration profiles of synthetic peptides by synthetic heparin oligosaccharides. Titrations were carried out on 1 μM peptides in the presence of heparin oligosaccharides. The Kd of each peptide-oligosaccharide interaction was determined by measuring the fluorescence change of intrinsic tryptophan at 340 nm. Data were fitted to a single-binding-site curve using nonlinear least-squares analysis.
as §3

ECP = molecular target: T3, ECP (Homo sapiens, UniProt P12724); test: FACE analysis of ECP binding to heparin oligosaccharides; conditions: AMAC-labeled oligosaccharide incubated with ECP, 1% agarose gel
T3 construct: His6 (C); made in house; host or cells: E. coli BL21-CodonPlus (DE3)
T3 sequence (P12724 28-160): T1 sequence (P12724 28-160)
Description: FIG. 2. FACE analysis to evaluate binding of ECP to various sugar-containing substrates. A, AMAC-labeled LMWH was incubated with or without ECP in PBS for 10 min at 25° C., and the binding reaction products were separated on a 1% agarose gel. The numbers above the gel indicate the molar ratio of ECP to LMWH. B, Representative oligosaccharide binding pattern of ECP. AMAC-labeled heparin dp3 (10.8 nmol), dp5 (3.3 nmol), dp7 (1.4 nmol), dp9 (1.1 nmol), LMWH (0.03 nmol) and PI-88 (0.03 nmol) were incubated with or without 10-fold molar excess of ECP, and the binding reaction products separated on a 1% agarose gel. C, Representative oligosaccharide binding pattern of EDN. AMAC-labeled heparin dp3 (10.8 nmol), dp5 (3.3 nmol), dp7 (1.4 nmol), dp9 (1.1 nmol), LMWH (0.03 nmol) and PI-88 (0.03 nmol) were incubated with or without 10-fold molar excess of ECP, and the binding reaction products separated on a 1% agarose gel.
Thus, the minimal heparin length (or disaccharide unit) required to interact with ECP was investigated by FACE (Fluorescence-assisted carbohydrate electrophoresis).
Initially, ECP was co-incubated with LMWH at various molar ratios, and the binding products were analyzed by gel electrophoresis. […]

[1] = test system: ECP binding to Beas-2B cells; test: Competitive inhibition of MBP-ECP binding to Beas-2B cells (cell ELISA); type: cell-based, human; conditions: Fifty micrograms per mililiter oligosaccharide; 5 μg/ml MBP-ECP; 4° C.
Description: FIG. 3. Heparin oligosaccharides inhibit ECP binding to cells. […] The amount of MBP-ECP bound to cells without GAG treatment was set to 100%. C, control (cells were incubated with MBP.) The data shown are the means of triplicate experiments.
FIG. 7. Synthetic peptides inhibit ECP binding to cells. […] The data shown are the means of triplicate experiments.
Beas-2B, a human bronchial epithelial cell line, was cultured in RPMI 1640 medium (Sigma-Aldrich) supplemented with heat-inactivated 10% fetal bovine serum (Gibco/Invitrogen, Carlsbad, Calif.).
The ability of MBP-ECP to bind cells in the presence of serial dilutions of oligosaccharides or peptides was determined as described (Fan, T. C., et al. (2007) Traffic 8, 1778-1795). At the present invention, synthetic heparins (dp3-9) were tested for their ability to interfere with ECP binding to Beas-2B cells. Briefly, confluent monolayers of Beas-2B cells in 96-well plates were pretreated with various concentrations of oligosaccharides or peptides in serum-free RPMI 1640 medium at 4° C. for 30 min before incubation with 5 μg/ml MBP-ECP at 4° C. for 1 h. The cells were then washed with ice-cold PBS and fixed with 2% PFA at room temperature for 15 min prior to blocking with 2% BSA/PBS at room temperature for 90 min. The level of bound MBP-ECP was quantified by ELISA analysis. MBP-ECP was detected using mouse monoclonal anti-MBP and goat anti-mouse horseradish peroxidase (HRP)-conjugated secondary antibody, followed by the enhanced chemiluminescence detection system. The amount of MBP-ECP bound to cells without oligosaccharide or peptide treatment was set to 100%.

[2] = test system: peri-bronchiolar and alveolar inflammation; design: species or system mice; conditions: mouse, in vivo
Source text: FIG. 15. Tissue pathology staining in mice. 5-μm formalin-fixed lung sections were stained with H & E in (A) control (B) mIT, (C) eIN, (D) eIN+mIT, (E) mIT+eIN and (F) eIN+mIT+eIN mice. (G) Peribronchial and alveolar inflammation scores.
Animals Study protocol Female Balb/c mice 8 weeks of age were obtained from the National Laboratory Breeding Research Center in Taiwan and were raised in a specific pathogen-free environment. The mice were divided into six groups: (1) control, (2) mite intra-tracheal (mIT) alone, (3) ECP^32-41 (SEQ ID NO: 9) intranasal, (eIN) alone, (4) pre-treated group: eIN+mIT, (5) post-treated group: mIT+eIN and (6) pre+post-treated group eIN+mIT+eIN. Mite crude extract allergen (1.6 μg/μl) was prepared and well emulsified in complete Freund's adjuvant (CFA; Sigma, St Louis, Mo., USA) at a ratio of 1:1 at 4° C. The mIT, eIN and eIN+mIT groups were immunized subcutaneously with 50 μl emulsified mite protein on day 1 and day 8. […]
Histopathological analysis Lung sections stained with hematoxylin and eosin (H&E) were assigned a unit value for alveolar, peri-bronchiolar and total inflammation by computing the means of three independent scores for three randomly selected view-fields. […] Total inflammatory scores were determined as the sum of the peri-bronchiolar and alveolar inflammatory scores. […]

CO[C@H]1O[C@H](COS(=O)(=O)O)[C@@H](O[C@@H]2O[C@@H](C(=O)O)[C@@H](O[C@H]3O[C@H](COS(=O)(=O)O)[C@@H](O[C@@H]4O[C@@H](C(=O)O)[C@@H](O[C@H]5O[C@H](COS(=O)(=O)O)[C@@H](O)[C@H](O)[C@H]5NS(=O)(=O)O)[C@H](O)[C@H]4OS(=O)(=O)O)[C@H](O)[C@H]3NS(=O)(=O)O)[C@H](O)[C@H]2OS(=O)(=O)O)[C@H](O)[C@H]1NS(=O)(=O)O [dp5]
Kd (ECP wt; PBS at 25° C., read-out: Kd, ECP wt): 140 nM
Kd (ECP mt1; PBS at 25° C., read-out: Kd, ECP mt1): 568 nM
Kd (C1 peptide; 1 μM peptide; tryptophan fluorescence at 340 nm; read-out: Kd, C1 peptide): 275 nM
binding to ECP (FACE) (ECP): shortest heparin fragment that retained the ability to bind ECP
inhibition of ECP binding to cells [1]: 50%

NYRWRCKNQN [ECP^32-41]
allergic airway inflammatory pathologies (H&E) [2]: did not demonstrate allergic airway inflammatory pathologies

CO[C@H]1O[C@H](COS(=O)(=O)O)[C@@H](O[C@@H]2O[C@@H](C(=O)O)[C@@H](O[C@H]3O[C@H](COS(=O)(=O)O)[C@@H](O[C@@H]4O[C@@H](C(=O)O)[C@@H](O[C@H]5O[C@H](COS(=O)(=O)O)[C@@H](O[C@@H]6O[C@@H](C(=O)O)[C@@H](O[C@H]7O[C@H](COS(=O)(=O)O)[C@@H](O[C@@H]8O[C@@H](C(=O)O)[C@@H](O[C@H]9O[C@H](COS(=O)(=O)O)[C@@H](O)[C@H](O)[C@H]9NS(=O)(=O)O)[C@H](O)[C@H]8OS(=O)(=O)O)[C@H](O)[C@H]7NS(=O)(=O)O)[C@H](O)[C@H]6OS(=O)(=O)O)[C@H](O)[C@H]5NS(=O)(=O)O)[C@H](O)[C@H]4OS(=O)(=O)O)[C@H](O)[C@H]3NS(=O)(=O)O)[C@H](O)[C@H]2OS(=O)(=O)O)[C@H](O)[C@H]1NS(=O)(=O)O [dp9]
Kd (ECP wt; read-out: Kd, ECP wt, PBS at 25° C.): 62.6 nM
Kd (ECP mt1; read-out: Kd, ECP mt1, PBS at 25° C.): 400 nM
Kd (C1 peptide; read-out: Kd, C1 peptide; 1 μM peptide; tryptophan fluorescence at 340 nm): 229 nM
